Assay results taken from US7482008B1, “Human T cell reactive feline protein (TRFP) isolated from house dust and uses therefor” (Merck Patent GmbH, priority 1989, dated 2009).

System: BDF1 mice preimmunized with TRFP
Assay: Peptide Y tolerization of mice preimmunized with TRFP, IL-2 (CTLL-2) and IL-4 (CT4S) production
Type: in vivo, mouse
Protocol: BDF1 mice were each immunized with 100 μg TRFP in 200 μl IFA (Incomplete Freund's Adjuvant) in a single site intraperitoneally. After four months, the mice were bled and grouped according to their anti-TRFP IgG antibody levels as follows. The mice were warmed with an infra-red lamp and bled through one of the tail veins by nicking the vein with a razor blade (Gilette Platinum Plus). The blood was allowed to drip into a serum separating tube (Microtainer, Becton-Dickenson) and allowed to clot. The sera was then separated from the clot by centrifugation at 13,000 rpm. The sera was stored at −20° C. until use. The sera was assayed for TRFP-specific IgG by ELISA. […] After rinsing, the bound mouse antibody was detected by incubation with biotinylated goat anti-mouse IgG (Southern Biotechnology Associates) diluted 1/10000 in PBS. […] The resulting O.D. values were read by an ELISA reader (Bio-Tek modal #310) at 450 nm to quantitate the complexes bound to TRFP protein on the plates. […]
There are several phenotypic classes of T helper cells which can be differentiated by their production of lymphokines. […] IL-2 production is easily measured from primary in vitro lymph node cultures through the IL-2 dependent CTLL-2 cell line. Similarly, IL-4 can be measured with cultures of the IL-4 dependent CT4S cells (provided by W. Paul). […] The plates were harvested and counted identically to the IL-2 assays detailed above. […]

## peptide Y: amino acid residues 29-55 from chain 1 of TRFP (SEQ. ID. NO: 18) (KALPVVLENARILKNCVDAKMTEEDKE)
300 μg s.c. days 0 and 5, animals preimmunized with TRFP
  tolerization of peptide Y specific T cells (IL-2): can be tolerized
Pooled lymph node cells, stimulation index
  peptide specific production of both IL-2 and IL-4 in secondary in vitro cultures: decreased
